The record followed here is ChEMBL document CHEMBL3739329, “Synthesis and biological evaluation of nitric oxide-releasing hybrids from gemcitabine and phenylsulfonyl furoxans as anti-tumor agents” (Medchemcomm, 2015).

Data set [1] in a line: Cytotoxicity against human SGC7901 cells assessed as inhibition of cell proliferation after 48 hrs by MTT assay. Type of data set: functional, cell-based. Particulars: SGC-7901, 48 h.
Data set [2] has as its system HepG2. The experiment in a line: Cytotoxicity against human HepG2 cells assessed as inhibition of cell proliferation after 48 hrs by MTT assay. Particulars: HepG2, 48 h. In kind it is functional, cell-based.
Data set [3] is described as follows: Cytotoxicity against human HCT116 cells assessed as inhibition of cell proliferation after 48 hrs by MTT assay. Type of data set: functional, cell-based. The note with it: HCT-116, 48 h.
Data set [4] in a line: Cytotoxicity against human SW620 cells assessed as inhibition of cell proliferation after 48 hrs by MTT assay. In kind it is functional, cell-based. The note with it: SW-620, 48 h.
A further data set deals with A549. The data set can be described thus: Cytotoxicity against human A549 cells assessed as inhibition of cell proliferation after 48 hrs by MTT assay. In kind it is functional, cell-based. The note with it: A549, 48 h.
A short description of data set [5]: Cytotoxicity against human LO2 cells assessed as inhibition of cell proliferation after 48 hrs by MTT assay. The note with it: l02, 48 h. In kind it is cell-based.
The subject of data set [6] is HepG2. The experiment in a line: Cytotoxicity against human HepG2 cells assessed as inhibition of cell proliferation at 0.5 to 50 uM after 48 hrs in presence of dipyridamole by MTT assay. Type of data set: functional, cell-based.
Data set [7] has as its system HepG2. The data set can be described thus: Induction of NO production in human HepG2 cells at 100 uM incubated for 24 hrs by Griess assay. Type of data set: functional, cell-based.
Data set [8] concerns HCT-116. The experiment in a line: Induction of NO production in human HCT116 cells at 100 uM incubated for 24 hrs by Griess assay. Type of data set: functional, cell-based.
The test system of data set [9] is SW-620. The data set can be described thus: Induction of nitrite/nitrate production in human SW620 cells at 100 uM incubated for 24 hrs by Griess assay. Type of data set: functional, cell-based.
The subject of data set [10] is HepG2. The data set can be described thus: Induction of nitric oxide release in human HepG2 cells incubated for 24 hrs by DAF-FM DA staining-based flow cytometric analysis. In kind it is functional, cell-based.
Data set [11] deals with HepG2. The experiment in a line: Cytotoxicity against human HepG2 cells assessed as inhibition of cell proliferation at 2 to 4 uM after 48 hrs in presence of haemoglobin. Type of data set: functional, cell-based.
Data set [12] deals with HepG2. The experiment in a line: Induction of apoptosis in human HepG2 cells at 2 uM incubated for 48 hrs by FITC-Annexin V/PI staining-based flow cytometric analysis. Type of data set: functional.
The subject of data set [13] is HepG2. The experiment in a line: Induction of apoptosis in human HepG2 cells incubated for 48 hrs by FITC-Annexin V/PI staining-based flow cytometric analysis. Type of data set: functional, cell-based.
In data set [14] the test system is HepG2. The data set can be described thus: Induction of apoptosis in human HepG2 cells assessed as reduction in Bcl-2 protein level incubated for 48 hrs by Western blot analysis. Type of data set: functional, cell-based.
Data set [15] concerns HepG2. The experiment in a line: Induction of apoptosis in human HepG2 cells assessed as increase in Bax protein level incubated for 48 hrs by Western blot analysis. In kind it is functional, cell-based.
Data set [16] deals with HepG2. The experiment in a line: Induction of apoptosis in human HepG2 cells assessed as increase in activated caspase-3 protein level at 0.5 to 2 uM incubated for 48 hrs by Western blot analysis. Type of data set: functional, cell-based.
Data set [17] concerns HepG2. The experiment in a line: Induction of apoptosis in human HepG2 cells assessed as reduction in PARP-1 protein level at 2 uM incubated for 48 hrs by Western blot analysis. Type of data set: functional, cell-based.
For data set [18], the system named is HCT-116. The data set can be described thus: Induction of nitric oxide release in human HCT116 cells incubated for 24 hrs by DAF-FM DA staining-based flow cytometric analysis. In kind it is functional, cell-based.
The subject of data set [19] is SW-620. The experiment in a line: Induction of nitric oxide release in human SW620 cells incubated for 24 hrs by DAF-FM DA staining-based flow cytometric analysis. Type of data set: functional, cell-based.
For data set [20], the system named is HepG2. The data set can be described thus: Induction of apoptosis in human HepG2 cells assessed as reduction in PARP-1 protein level at 0.5 to 2 uM incubated for 48 hrs by Western blot analysis. In kind it is functional, cell-based.
Data set [21] has as its system HepG2. The data set can be described thus: Induction of nitric oxide release in human HepG2 cells at 6 uM incubated for 24 hrs by DAF-FM DA staining-based flow cytometric analysis. In kind it is functional, cell-based.
In data set [22] the test system is SW-620. The experiment in a line: Induction of nitric oxide release in human SW620 cells at 6 uM incubated for 24 hrs by DAF-FM DA staining-based flow cytometric analysis. In kind it is functional, cell-based.
Data set [23] has as its system HCT-116. The experiment in a line: Induction of nitric oxide release in human HCT116 cells at 6 uM incubated for 24 hrs by DAF-FM DA staining-based flow cytometric analysis. Type of data set: functional, cell-based.

Each structure is given as a SMILES string. Activity calls are given as the source filed them. No cut-off for these calls is given here. A value given as a limit tells only on which side of the number the result lay.

Take `O=C(CCC(=O)OCC#CCOc1no[n+]([O-])c1S(=O)(=O)c1ccccc1)Nc1ccn([C@@H]2O[C@H](CO)[C@@H](O)C2(F)F)c(=O)n1`: the IC50 worked out at 1.36 µM in data set [1]; 1.02 µM with HepG2 [2]; 1.19 µM in [3]; 1.3 µM in data set [4]; 3.27 µM in the data set on A549. The Activity result was “Non-toxic” in [5]; “Dose-dependent effect” in the data set on HepG2 [10]; 78.3% with HepG2 [12]; “Dose-dependent effect” in the data set on HepG2 [14]; “Dose-dependent effect” in the data set on HepG2 [15]; “Dose-dependent effect” with HCT-116 [18]. Besides, the Activity entry in the data set with SW-620 [19] was “Dose-dependent effect”. Moreover, the result in the data set with HepG2 [6], in the data set on HepG2 [7], with HCT-116 [8], in the data set with SW-620 [9], with HepG2 [13] and in the data set on HepG2 [16] was Active. Further, the outcome in the data set with HepG2 [17] and in the data set with HepG2 [20] was Active. The result in the data set with HepG2 [11] was inactive.

On to `O=C(CCC(=O)OCCOCCOc1no[n+]([O-])c1S(=O)(=O)c1ccccc1)Nc1ccn([C@@H]2O[C@H](CO)[C@@H](O)C2(F)F)c(=O)n1`, for which the IC50 is 10.7 µM in data set [1]; 7.05 µM with HepG2 [2]; 7.86 µM in data set [3]; more than 12.5 µM in data set [4]; 11.5 µM in the data set on A549.

As to `O=C(CCC(=O)OCCCCOc1no[n+]([O-])c1S(=O)(=O)c1ccccc1)Nc1ccn([C@@H]2O[C@H](CO)[C@@H](O)C2(F)F)c(=O)n1`, the IC50 in data set [1] was 6.13 µM; with HepG2 [2], 2.44 µM; in data set [3] it was 3.57 µM; in data set [4] it was 2.49 µM; in the data set with A549, 5.18 µM. In addition, the result in the data set with HepG2 [7], in the data set on HCT-116 [8] and with SW-620 [9] was Active.

In the case of `CC(CCOC(=O)CCC(=O)Nc1ccn([C@@H]2O[C@H](CO)[C@@H](O)C2(F)F)c(=O)n1)Oc1no[n+]([O-])c1S(=O)(=O)c1ccccc1` (stereo partly drawn), the IC50 in data set [1] was 7.44 µM; with HepG2 [2] it was 3.25 µM; in data set [3], 4.69 µM; in data set [4], 3.98 µM; in the data set with A549 it was 7.82 µM. Further, the result with HepG2 [7], in the data set on HCT-116 [8] and with SW-620 [9] was Active.

Consider `O=C(CCC(=O)Nc1ccn([C@@H]2O[C@H](CO)[C@@H](O)C2(F)F)c(=O)n1)NCCOc1no[n+]([O-])c1S(=O)(=O)c1ccccc1`, for which the IC50 was 9.92 µM in data set [1]; 10.5 µM in the data set with HepG2 [2]; more than 12.5 µM in data set [3]; 9.16 µM in data set [4]; more than 12.5 µM in the data set on A549.

Consider `O=C(O)CCC(=O)OCC#CCOc1no[n+]([O-])c1S(=O)(=O)c1ccccc1`, for which the IC50 in [1] is 11.5 µM; in the data set on HepG2 [2], 8.73 µM; in data set [3] it was 9.86 µM; in data set [4], 9.09 µM; in the data set with A549 it was more than 12.5 µM.

On to `CCOC(=O)N1CCN(/[N+]([O-])=N/Oc2ccc([N+](=O)[O-])cc2[N+](=O)[O-])CC1`, for which the IC50 in the data set on HepG2 [2] came out at 7.42 µM; in [3] it was 3.75 µM; in data set [4] it was 5.16 µM. The result in the data set on HepG2 [21], with SW-620 [22] and with HCT-116 [23] was Active.

Consider `O=C(CCC(=O)OCCOc1no[n+]([O-])c1S(=O)(=O)c1ccccc1)Nc1ccn([C@@H]2O[C@H](CO)[C@@H](O)C2(F)F)c(=O)n1`, for which the IC50 in data set [1] is more than 12.5 µM; in the data set on HepG2 [2], more than 12.5 µM; in data set [3] it was 10.3 µM; in [4] it was more than 12.5 µM; in the data set with A549, more than 12.5 µM.

Regarding `O=C(CCC(=O)Nc1ccn([C@@H]2O[C@H](CO)[C@@H](O)C2(F)F)c(=O)n1)NCCCOc1no[n+]([O-])c1S(=O)(=O)c1ccccc1`, the IC50 is 6.71 µM in data set [1]; 6.18 µM in the data set on HepG2 [2]; 4.1 µM in [3]; 4.97 µM in [4]; 8.9 µM in the data set on A549. Further, the outcome with HepG2 [7], in the data set on HCT-116 [8] and in the data set on SW-620 [9] was Active.

Regarding `Nc1ccn([C@@H]2O[C@H](CO)[C@@H](O)C2(F)F)c(=O)n1` [GEMCITABINE], the IC50 came to 3.58 µM in [1]; 2.97 µM in the data set on HepG2 [2]; 7.33 µM in data set [3]; 5.62 µM in data set [4]; 2.69 µM in the data set with A549. Besides, the result in the data set on HepG2 [6], with HepG2 [7], in the data set on HCT-116 [8] and with SW-620 [9] was inactive. Moreover, the result with HepG2 [12] and in the data set on HepG2 [17] was Active.

In the case of `O=C(CCC(=O)OCCCCCOc1no[n+]([O-])c1S(=O)(=O)c1ccccc1)Nc1ccn([C@@H]2O[C@H](CO)[C@@H](O)C2(F)F)c(=O)n1`, the IC50 in data set [1] was 10.5 µM; with HepG2 [2], more than 12.5 µM; in data set [3] it was 11.3 µM; in data set [4] it was 9.67 µM; in the data set with A549, more than 12.5 µM.

As to `O=C(CCC(=O)Nc1ccn([C@@H]2O[C@H](CO)[C@@H](O)C2(F)F)c(=O)n1)NCCCCCOc1no[n+]([O-])c1S(=O)(=O)c1ccccc1`, the IC50 was 11.8 µM in [1]; 10.7 µM with HepG2 [2]; more than 12.5 µM in data set [3]; more than 12.5 µM in data set [4]; more than 12.5 µM in the data set on A549.

`O=C(CCC(=O)Nc1ccn([C@@H]2O[C@H](CO)[C@@H](O)C2(F)F)c(=O)n1)NCCCCOc1no[n+]([O-])c1S(=O)(=O)c1ccccc1`: the IC50 in data set [1] turned out to be 5.1 µM; in the data set with HepG2 [2], 3.22 µM; in data set [3] it was 3.06 µM; in [4] it was 4.35 µM; with A549, 6.04 µM. The result in the data set on HepG2 [7], with HCT-116 [8] and in the data set with SW-620 [9] was Active.

For the molecule `CN(CCOc1no[n+]([O-])c1S(=O)(=O)c1ccccc1)C(=O)CCC(=O)Nc1ccn([C@@H]2O[C@H](CO)[C@@H](O)C2(F)F)c(=O)n1`, the 50% inhibitory concentration (IC50) in [1] is 5.85 µM; in the data set on HepG2 [2], 8.39 µM; in data set [3], 10.8 µM; in data set [4], 5.21 µM; with A549, 10.1 µM.

For the molecule `O=C(CCC(=O)OCCCOc1no[n+]([O-])c1S(=O)(=O)c1ccccc1)Nc1ccn([C@@H]2O[C@H](CO)[C@@H](O)C2(F)F)c(=O)n1`, the IC50 in data set [1] is 9.26 µM; in the data set with HepG2 [2] it was 5.32 µM; in data set [3], 6.89 µM; in data set [4], 5 µM; in the data set on A549, 9.92 µM. Further, the outcome in the data set with HepG2 [7], with HCT-116 [8] and with SW-620 [9] was Active.

For the molecule `O=C(CCC(=O)Oc1ccc(CCOc2no[n+]([O-])c2S(=O)(=O)c2ccccc2)cc1)Nc1ccn([C@@H]2O[C@H](CO)[C@@H](O)C2(F)F)c(=O)n1`, the 50% inhibitory concentration (IC50) is more than 12.5 µM in data set [1]; 9.21 µM with HepG2 [2]; 8.78 µM in data set [3]; more than 12.5 µM in [4]; more than 12.5 µM in the data set with A549.
